How the values were obtained:
Assay in all cases: NCI60 antitumor screening
Format in all cases: cell-based, human
CCRF-CEM = conditions: 10 μM one-dose
HL-60(TB) = conditions: 10 μM one-dose
K-562 = conditions: 10 μM one-dose
RPMI-8226 = conditions: 10 μM one-dose
A549/ATCC = conditions: 10 μM one-dose
HOP-62 = conditions: 10 μM one-dose
NCI-H226 = conditions: 10 μM one-dose
NCI-H322M = conditions: 10 μM one-dose
NCI-H460 = conditions: 10 μM one-dose
NCI-H522 = conditions: 10 μM one-dose
HCC-2998 = conditions: 10 μM one-dose
HCT-15 = conditions: 10 μM one-dose
HT29 = conditions: 10 μM one-dose
SW-620 = conditions: 10 μM one-dose
SF-268 = conditions: 10 μM one-dose
SF-539 = conditions: 10 μM one-dose
SNB-19 = conditions: 10 μM one-dose
SNB-75 = conditions: 10 μM one-dose, Table 1
U251 = conditions: 10 μM one-dose
LOX IMVI = conditions: 10 μM one-dose
MALME-3M = conditions: 10 μM one-dose
MDA-MB-435 = conditions: 10 μM one-dose
SK-MEL-5 = conditions: 10 μM one-dose
UACC-62 = conditions: 10 μM one-dose
IGROV1 = conditions: 10 μM one-dose
OVCAR-4 = conditions: 10 μM one-dose
OVCAR-5 = conditions: 10 μM one-dose
OVCAR-8 = conditions: 10 μM one-dose
NCI/ADR-RES = conditions: 10 μM one-dose
786–0 = conditions: 10 μM one-dose
A498 = conditions: 10 μM one-dose
ACHN = conditions: 10 μM one-dose
CAKI-1 = conditions: 10 μM one-dose
RXF 393 = conditions: 10 μM one-dose
TK-10 = conditions: 10 μM one-dose
UO-31 = conditions: 10 μM one-dose
MCF7 = conditions: 10 μM one-dose
MDA-MB-468 = conditions: 10 μM one-dose

In the case of Cc1ccc(CSc2nc(-c3ccc(F)cc3)c(C#N)c(N3CCOCC3)n2)cc1 [4d, 4-(4-Fluorophenyl)-2-((4-methylbenzyl)thio)-6-morpholinopyrimidine-5-carbonitrile], the GI% (CCRF-CEM) is reported as “— (GI% < 10)”, the GI% (HL-60(TB)) is reported as “— (GI% < 10)” and the GI% (K-562) is reported as 10.67%. For the same molecule, the GI% (K-562; Table 1) was “— (GI value > 70%)”, the GI% (RPMI-8226) was “— (GI% < 10)” and the GI% (A549/ATCC) was 24.90%. The GI% (HOP-62) was 36.77%, the GI% (HOP-62; Table 1) was “— (GI value > 70%)” and the GI% (NCI-H226) was 21.35%. The GI% (NCI-H226; Table 1) was “— (GI value > 70%)”, the GI% (NCI-H322M) was “— (GI% < 10)” and the GI% (NCI-H460) was “— (GI% < 10)”. For the same molecule, the GI% (NCI-H522) was 44.57%, the GI% (HCC-2998) was “— (GI% < 10)” and the GI% (HCT-15) was “— (GI% < 10)”. For the same molecule, the GI% (HT29) was “— (GI% < 10)”, the GI% (SW-620) was “— (GI% < 10)” and the GI% (SF-268) was 22.32%. The GI% (SF-539) was 32.27%, the GI% (SF-539; Table 1) was “— (GI value > 70%)” and the GI% (SNB-19) was 44.48%. The GI% (SNB-75) was 88.04%, the GI% (U251) was 13.13% and the GI% (LOX IMVI) was 11.10%. The GI% (MALME-3M) was 26.17%, the GI% (MDA-MB-435) was “— (GI% < 10)” and the GI% (SK-MEL-5) was 10.99%. The GI% (UACC-62) was 22.83%, the GI% (IGROV1) was “— (GI% < 10)” and the GI% (OVCAR-4) was 20.15%. For the same molecule, the GI% (OVCAR-4; Table 1) was “— (GI value > 70%)”, the GI% (OVCAR-5) was “— (GI% < 10)” and the GI% (OVCAR-8) was 23.86%. For the same molecule, the GI% (NCI/ADR-RES) was “— (GI% < 10)”, the GI% (786–0) was 55.92% and the GI% (786–0; Table 1) was “— (GI value > 70%)”. For the same molecule, the GI% (A498) was “— (GI% < 10)”, the GI% (ACHN) was 37.30% and the GI% (CAKI-1) was 44.00%. For the same molecule, the GI% (RXF 393) was 48.96%, the GI% (RXF 393; Table 1) was “— (GI value > 70%)” and the GI% (TK-10) was “— (GI% < 10)”. The GI% (UO-31) was 10.06%, the GI% (MCF7) was 11.76% and the GI% (MDA-MB-468) was “— (GI% < 10)”.

Reference: paper PMC10620772, “Design, synthesis, and biological evaluation of new pyrimidine-5-carbonitrile derivatives as novel anti-cancer, dual EGFR^WT/COX-2 inhibitors with docking studies” (RSC Advances, 2023)
